Structures are written as SMILES.

Among the data in ChEMBL document CHEMBL1146437, “Asterlingulatosides C and D, cytotoxic triterpenoid saponins from Aster lingulatus” (J Nat Prod, 1997) are IC50 values, retold here.

For this assay, the system named is HL-60. The assay is described as follows: Cytotoxicity against human HL60 cells assessed as inhibition of [3H]thymidine incorporation. The assay is classed as functional, cell-based.
For `CC1(C)CC[C@]2(C(=O)O[C@@H]3OC[C@H](O)[C@H](O)[C@H]3O)[C@H](O)C[C@]3(C)C(=CC[C@@H]4[C@@]5(C)CC[C@H](O[C@@H]6O[C@H](CO)[C@@H](O)[C@H](O)[C@H]6O)C(C)(C)[C@@H]5CC[C@]43C)[C@@H]2C1` [ASTERLINGULATOSIDE A], the IC50 worked out at 39 µM.

As for `C[C@@H]1O[C@@H](O[C@H]2[C@H](OC(=O)[C@]34CCC(C)(C)C[C@H]3C3=CC[C@@H]5[C@@]6(C)CC[C@H](O[C@@H]7O[C@H](CO)[C@@H](O)[C@H](O)[C@H]7O)C(C)(C)[C@@H]6CC[C@@]5(C)[C@]3(C)C[C@H]4O)OC[C@H](O)[C@@H]2O)[C@H](O)[C@H](O)[C@H]1O` [ASTERLINGULATOSIDE B], the IC50 came out at 70.4 µM.

Regarding `C[C@@H]1O[C@@H](O[C@H]2[C@H](OC(=O)[C@]34CCC(C)(C)C[C@H]3C3=CC[C@@H]5[C@@]6(C)CC[C@H](O[C@@H]7O[C@H](CO)[C@@H](O)[C@H](O)[C@H]7O)C(C)(C)[C@@H]6CC[C@@]5(C)[C@]3(C)C[C@H]4O)OC[C@H](O)[C@@H]2O)[C@H](O)[C@H](O)[C@H]1O[C@@H]1OC[C@@H](O)[C@H](O)[C@H]1O` [ASTERLINGULATOSIDE C], the IC50 was 8.8 µM.

On to `C[C@@H]1O[C@@H](O[C@H]2[C@H](OC(=O)[C@]34CCC(C)(C)C[C@H]3C3=CC[C@@H]5[C@@]6(C)CC[C@H](O[C@@H]7O[C@H](CO)[C@@H](O)[C@H](O)[C@H]7O)C(C)(C)[C@@H]6CC[C@@]5(C)[C@]3(C)C[C@H]4O)OC[C@H](O)[C@@H]2O)[C@H](O)[C@H](O)[C@H]1O[C@@H]1OC[C@@H](O)[C@H](O[C@@H]2OC[C@@H](O)[C@H](O)[C@H]2O)[C@H]1O` [ASTERLINGULATOSIDE], for which the IC50 turned out to be 6.1 µM.

One may read the IC50 as the midpoint of a concentration-inhibition curve.
